One test addresses T1, TNKS2 (Homo sapiens, UniProt Q9H2K2).
T1 sequence (Q9H2K2 1-1166): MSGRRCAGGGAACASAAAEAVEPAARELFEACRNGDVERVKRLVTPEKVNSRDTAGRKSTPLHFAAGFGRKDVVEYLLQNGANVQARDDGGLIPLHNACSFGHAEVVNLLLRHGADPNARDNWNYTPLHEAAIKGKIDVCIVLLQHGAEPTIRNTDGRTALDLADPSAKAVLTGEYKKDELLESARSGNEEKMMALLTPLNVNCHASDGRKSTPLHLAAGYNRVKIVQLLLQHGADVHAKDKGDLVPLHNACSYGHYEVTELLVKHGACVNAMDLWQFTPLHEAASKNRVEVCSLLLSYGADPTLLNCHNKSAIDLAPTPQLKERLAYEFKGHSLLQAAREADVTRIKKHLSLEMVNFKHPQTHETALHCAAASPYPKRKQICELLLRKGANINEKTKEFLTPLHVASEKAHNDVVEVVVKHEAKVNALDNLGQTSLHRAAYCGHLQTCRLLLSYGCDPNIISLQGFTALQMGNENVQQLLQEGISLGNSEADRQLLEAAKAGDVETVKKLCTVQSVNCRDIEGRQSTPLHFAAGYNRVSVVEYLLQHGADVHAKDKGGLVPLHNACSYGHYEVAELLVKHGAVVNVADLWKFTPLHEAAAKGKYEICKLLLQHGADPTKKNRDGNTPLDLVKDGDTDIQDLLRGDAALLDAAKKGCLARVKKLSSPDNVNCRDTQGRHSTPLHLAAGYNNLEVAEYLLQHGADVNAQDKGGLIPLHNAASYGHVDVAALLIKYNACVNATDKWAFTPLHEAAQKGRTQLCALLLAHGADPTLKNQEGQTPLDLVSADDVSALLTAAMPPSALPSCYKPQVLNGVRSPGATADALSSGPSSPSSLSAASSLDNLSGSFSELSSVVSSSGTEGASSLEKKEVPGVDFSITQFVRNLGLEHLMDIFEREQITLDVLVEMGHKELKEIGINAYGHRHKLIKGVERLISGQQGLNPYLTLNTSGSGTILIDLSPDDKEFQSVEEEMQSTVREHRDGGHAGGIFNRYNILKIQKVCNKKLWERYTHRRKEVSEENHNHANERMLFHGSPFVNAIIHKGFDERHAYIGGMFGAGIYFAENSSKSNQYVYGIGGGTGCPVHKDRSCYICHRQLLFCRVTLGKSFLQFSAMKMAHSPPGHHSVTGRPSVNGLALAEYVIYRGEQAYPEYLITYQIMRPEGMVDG
The test is described as follows: Modified TNKS2 Assay 3 (BPS kit #80578, biotin-NAD+, 96 well). Format: biochemical. Conditions: human TNKS2, BPS kit #80578, 96 well. The method, boiled down: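 Commercial kit assay measuring TNKS2-catalysed incorporation of biotin-labelled NAD+ into a protein substrate, detected by streptavidin-HRP chemiluminescence. Run per manufacturer's protocol; IC50 is the concentration halving the normalised signal.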

In test [1] the test system is wildtype Wnt signaling cascade. As to the kind of experiment: HEK293 TOP Assay (Super TopFlash luciferase reporter, Wnt-3a stimulated). The format is cell-based. Conditions: Homo sapiens, HEK293, 16 h, HEK293 TOP reporter cell line, Wnt-3a at EC50, 16 hours incubation, compound dilution series 50 μM to 15 nM. The gist of the method:
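HEK293 cells stably carrying Super TopFlash (TOP) or FOP reporter, stimulated with recombinant human Wnt-3a (2500–5 ng/ml, two-fold steps). Both lines incubated in parallel with compound from 50 μM to 15 nM (3.16-fold) in CAFTY buffer pH 7.4 with 2 mM Ca2+ and 0.01% BSA; selectivity judged TOP vs FOP.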
On the technique in general: In a reporter assay the amount or activity of a reporter protein is the signal.

SMILES strings stand for the structures. Where “and” joins values, the source holds several entries; their conditions need not be identical. Equal values may be shown once. Where only a bound is given, the exact number is not on record here.

Regarding `NC(=O)c1nc[nH]c1C(=O)Nc1ccc(NC(=O)c2ccccc2Cl)cc1` [Example 120, N^5-{4-[(2-chlorobenzoyl)amino]phenyl}-1H-imidazole-4,5-dicarboxamide], the concentration for half-maximal inhibition (IC50) – broadly, the concentration at which inhibition is half-maximal – at TNKS2 came to 140 nM; in test [1] it was 1200 nM.
For `O=C(Nc1ccc(NC(=O)c2nc[nH]c2C(=O)NCC2CC2)cc1)c1ccc(F)cc1Cl` [Example 128, N^4-{4-[(2-chloro-4-fluorobenzoyl)amino]phenyl}-N^5-(cyclopropylmethyl)-1H-imidazole-4,5-dicarboxamide], in that order: greater than 500 nM and 260 nM.
The corresponding values for `O=C(Nc1ccc(NC(=O)c2nc[nH]c2C(=O)NCCO)cc1)c1ccc(F)cc1Cl` [Example 132, N^4-{4-[(2-chloro-4-fluorobenzoyl)amino]phenyl}-N^5-(2-hydroxyethyl)-1H-imidazole-4,5-dicarboxamide] are 430 nM and 140 nM.
The corresponding values for `CCNC(=O)c1[nH]cnc1C(=O)Nc1ccc(NC(=O)c2ccc(F)cc2Cl)cc1` [Example 138, N^4-{4-[(2-chloro-4-fluorobenzoyl)amino]phenyl}-N^5-ethyl-1H-imidazole-4,5-dicarboxamide] are 150 nM and 260 nM.
`O=C(Nc1ccc(NC(=O)c2nc[nH]c2C(=O)NCC(F)F)cc1)c1ccc(F)cc1Cl` [Example 139, N^4-{4-[(2-chloro-4-fluorobenzoyl)amino]phenyl}-N^5-(2,2-difluoroethyl)-1H-imidazole-4,5-dicarboxamide]: the values for the IC50 (against TNKS2; in test [1]) were 350 nM and 360 nM, respectively.
In the case of `O=C(Nc1ccc(NC(=O)c2nc[nH]c2C(=O)N2CCC2)cc1)c1ccc(F)cc1Cl` [Example 142, 5-(azetidin-1-ylcarbonyl)-N-{4-[(2-chloro-4-fluorobenzoyl)amino]phenyl}-1H-imidazole-4-carboxamide], the half-maximal inhibitory concentration (IC50) against TNKS2 amounted to 60 nM; in test [1] it was 120 nM.
`O=C(Nc1ccc(NC(=O)c2nc[nH]c2C(=O)N2CC3(COC3)C2)cc1)c1ccc(F)cc1Cl` [Example 145, N-{4-[(2-chloro-4-fluorobenzoyl)amino]phenyl}-5-(2-oxa-6-azaspiro[3.3]hept-6-ylcarbonyl)-1H-imidazole-4-carboxamide]: the values for the IC50 (at TNKS2; in test [1]) were greater than 500 nM and 290 nM, respectively.
As to `CC(C)(N)CNC(=O)c1ncoc1C(=O)Nc1ccc(NC(=O)c2ccc(F)cc2Cl)cc1` [Example 219, N^4-(2-amino-2-methylpropyl)-N^5-{4-[(2-chloro-4-fluorobenzoyl)amino]phenyl}-1,3-oxazole-4,5-dicarboxamide], the IC50 turned out to be 420 nM against TNKS2 and 7500 nM in test [1].
For `CC(C)(O)CNC(=O)c1[nH]cnc1C(=O)Nc1ccc(NC(=O)c2ccc(F)cc2Cl)cc1` [Example 223, N^4-{4-[(2-chloro-4-fluorobenzoyl)amino]phenyl}-N^5-(2-hydroxy-2-methylpropyl)-1H-imidazole-4,5-dicarboxamide], in that order: 340 nM and 330 nM.
As for `O=C(Nc1ccc(NC(=O)c2nc[nH]c2C(=O)NCCN2CCCC2)cc1)c1ccc(F)cc1Cl` [Example 228, N^4-{4-[(2-chloro-4-fluorobenzoyl)amino]phenyl}-N^5-[2-(pyrrolidin-1-yl)ethyl]-1H-imidazole-4,5-dicarboxamide], the half-inhibitory concentration (IC50) against TNKS2 is 4 nM and < 0.5 nM; in test [1] it was 30 nM.
Consider `O=C(Nc1ccc(NC(=O)c2nc[nH]c2C(=O)NCCN2CC[C@@H](F)C2)cc1)c1ccc(F)cc1Cl` [Example 231, N^4-{4-[(2-chloro-4-fluorobenzoyl)amino]phenyl}-N^5-{2-[(3R)-3-fluoropyrrolidin-1-yl]ethyl}-1H-imidazole-4,5-dicarboxamide], for which the results for the concentration for half-maximal inhibition (IC50) (against TNKS2; in test [1]) were 20 nM and 70 nM, respectively.
For `O=C(Nc1ccc(NC(=O)c2nc[nH]c2C(=O)NCC2CCOCC2)cc1)c1ccc(F)cc1Cl` [Example 233, N^4-{4-[(2-chloro-4-fluorobenzoyl)amino]phenyl}-N^5-(tetrahydro-2H-pyran-4-ylmethyl)-1H-imidazole-4,5-dicarboxamide], in that order: 160 nM and 450 nM.
The corresponding values for `O=C(Nc1ccc(NC(=O)c2nc[nH]c2C(=O)NCC2CCOC2)cc1)c1ccc(F)cc1Cl` (centres unmarked) [Example 235, N^4-{4-[(2-chloro-4-fluorobenzoyl)amino]phenyl}-N^5-(tetrahydrofuran-3-ylmethyl)-1H-imidazole-4,5-dicarboxamide] are 150 nM and 240 nM.
The corresponding values for `O=C(Nc1ccc(NC(=O)c2nc[nH]c2C(=O)NCC2CCCO2)cc1)c1ccc(F)cc1Cl` (centres unmarked) [Example 237, N^4-{4-[(2-chloro-4-fluorobenzoyl)amino]phenyl}-N^5-(tetrahydrofuran-2-ylmethyl)-1H-imidazole-4,5-dicarboxamide] are 230 nM and 430 nM.
On to `CNC(=O)c1nc[nH]c1C(=O)Nc1ccc(NC(=O)c2ccc(OC)cc2Cl)cc1` [Example 246, N^5-{4-[(2-chloro-4-methoxybenzoyl)amino]phenyl}-N^4-methyl-1H-imidazole-4,5-dicarboxamide], for which the IC50 worked out at 60 nM against TNKS2 and 200 nM in test [1].
For the molecule `O=C(Nc1ccc(NC(=O)c2nc[nH]c2C(=O)NCCN2CCC[C@H](O)C2)cc1)c1ccc(F)cc1Cl` [Example 271, N^4-{4-[(2-chloro-4-fluorobenzoyl)amino]phenyl}-N^5-{2-[(3S)-3-hydroxypiperidin-1-yl]ethyl}-1H-imidazole-4,5-dicarboxamide], the results for the IC50 (against TNKS2; in test [1]) were 2 nM and 30 nM, respectively.
For `CC(C)(N)CNC(=O)c1[nH]cnc1C(=O)Nc1ccc(NC(=O)c2ccc(F)cc2Cl)cc1` [Example 280, N^5-(2-amino-2-methylpropyl)-N^4-{4-[(2-chloro-4-fluorobenzoyl)amino]phenyl}-1H-imidazole-4,5-dicarboxamide], in that order: 30 nM and 1050 nM.
For `CC(C)(N)CCNC(=O)c1[nH]cnc1C(=O)Nc1ccc(NC(=O)c2ccc(F)cc2Cl)cc1` [Example 286, N^5-(3-amino-3-methylbutyl)-N^4-{4-[(2-chloro-4-fluorobenzoyl)amino]phenyl}-1H-imidazole-4,5-dicarboxamide], in that order: 10 nM and 460 nM.
For `CNCCNC(=O)c1[nH]cnc1C(=O)Nc1ccc(NC(=O)c2ccc(F)cc2Cl)cc1` [Example 287, N^4-{4-[(2-chloro-4-fluorobenzoyl)amino]phenyl}-N^5-[2-(methylamino)ethyl]-1H-imidazole-4,5-dicarboxamide], in that order: 20 nM and 750 nM.
With `CC(C)NCCNC(=O)c1[nH]cnc1C(=O)Nc1ccc(NC(=O)c2ccc(F)cc2Cl)cc1` [Example 288, N^4-{4-[(2-chloro-4-fluorobenzoyl)amino]phenyl}-N^5-[2-(isopropylamino)ethyl]-1H-imidazole-4,5-dicarboxamide], the IC50 was 3 nM at TNKS2 and 990 nM in test [1].
Take `CNC(=O)c1nc[nH]c1C(=O)Nc1ccc(NC(=O)c2ccc(C#N)cc2F)cc1` [Example 369, N^5-{4-[(4-cyano-2-fluorobenzoyl)amino]phenyl}-N^4-methyl-1H-imidazole-4,5-dicarboxamide]: the IC50 at TNKS2 was determined as 40 nM; in test [1], 750 nM.
For `CN1CCC(CNC(=O)c2nc[nH]c2C(=O)Nc2ccc(NC(=O)c3ccc(F)cc3Cl)cc2)C1` (centres unmarked) [Example 407, N^5-{4-[(2-chloro-4-fluorobenzoyl)amino]phenyl}-N^4-[(1-methylpyrrolidin-3-yl)methyl]-1H-imidazole-4,5-dicarboxamide], in that order: 8 nM and 230 nM.

The values above are taken from patent US9884063B2, “Amido-substituted azole compounds” (Bayer Pharma Aktiengesellschaft, priority 2014, dated 2018).
